Experimental data taken from patent US4923882A, “Novel amine derivatives, salts thereof and an anti-ulcer agent containing the same” (Toyama Chemical Co., Ltd., priority 1982, dated 1990).

Assays:
gastric acid secretion [1] = assay: Inhibitory effect on gastric acid secretion, perfused stomach preparation of anesthetized rat (histamine stimulated); assay type: in vivo, Wistar strain rats; settings: intravenous; for ED100: Rattus norvegicus, cumulative, histamine 30 μg/kg/min, read-out: Dose for complete inhibition; for Duration: time from complete inhibition until pH of perfusate became 4
Procedure: (i) Perfused stomach preparation of anesthetized rat [according to M. N. Ghosh and H. O. Schild: Brit. J. Pharmacol. 13, 54 (1958)]
Wistar strain rats (male, 200 to 250 g) starved for 18 hours were anesthetized with urethane and then subjected to laparotomy, after which the forestomach region of the stomach of each rat was incised. The whole interior of the stomach was sufficiently washed with physiological saline, and the cut edges were sutured. A silicon tube was inserted into the stomach to a length of about 5 mm from the duodenum side and fixed. Subsequently, the stomach was perfused with physiological saline adjusted to a pH of about 10 with an aqueous sodium hydroxide solution at a constant rate (1 ml/min) through an oral sonde, and the change in pH of the perfusate which had flowed out through the silicone tube was continuously recorded. During the perfusion, histamine (30 μg/kg/min) was continuously injected, as an agent for stimulating gastric acid secretion, through the femoral vein at a rate of 0.3 ml/min. Each drug was intravenously administered when the acid secretion became almost constant (pH 3.3±0.2), and cumulatively administered when the inhibition of acid secretion at each dose reached a plateau.
The number of experiments was three for each dose.

gastric acid secretion [2] = assay: Inhibitory effect on gastric acid secretion, pylorus ligation method (histamine); assay type: in vivo, Wistar strain rats; settings: Rattus norvegicus, oral, histamine 25 mg/kg s.c., read-out: Inhibition percentage (gastric acid secretion)
Procedure: Five to six Wistar strain rats (male, 190 to 230 g) per group were starved for 35 hours, after which each drug was orally administered, and after 2 hours, the pylorus of each rat was ligated under ether anesthesia. […] After 3 hours, each rat was killed, after which the cardiac portion was ligated, and the stomach was removed. After 1 ml of distilled water was injected into the stomach, the gastric juice was collected by centrifugation and its volume was measured. The acidity of the gastric juice was measured by titrating 1 ml of the gastric juice with a 0.1N aqueous sodium hydroxide solution, taking pH 7.0 as the end-point. Physiological saline was administered to a control group.
The inhibition percentage of gastric acid secretion was determined from the following equation: [formula]

| SMILES | ED100 (gastric acid secretion [1]) [mg/kg] | Duration (gastric acid secretion [1]) [min] | inhibition in vivo at 3 mg/kg (gastric acid secretion [2]) [%] | inhibition in vivo at 1 mg/kg (gastric acid secretion [2]) [%] |
| --- | --- | --- | --- | --- |
| N#CNC(=NCC(O)c1ccccc1)NCCSCc1csc(NC(=N)N)n1 (stereo not drawn) [compound 1, N-cyano-N'-{2-[(2-guanidino-4-thiazolyl)methylthio]ethyl}-N"-(β-hydroxyphenethyl)guanidine] | 0.3 | > 210 | – | – |
| NC(N)=Nc1nc(CSCCNC(=C[N+](=O)[O-])NCC(O)c2ccccc2)cs1 (stereo not shown) [compound 2] | 0.1 | > 160 | – | – |
| CN(C)Cc1ccc(CSCCNC(=C[N+](=O)[O-])NCC(O)c2cccnc2)o1 (stereo not shown) [compound 8, N-{2-[[5-(dimethylamino)methyl-2-furyl]methylthio]ethyl}-N'-[2-hydroxy-2-(3-pyridyl)ethyl]-2-nitro-1,1-ethenediamine] | 0.3 | 200 | – | – |
| Cc1cc(CSCCNC(=C[N+](=O)[O-])NCC(O)c2ccc(O)cc2)sc1CN(C)C (stereo not shown) [compound 10, N-{2-[[5-(dimethylamino)methyl-4-methyl-2-thienyl]methylthio]ethyl}-N'-[2-hydroxy-2-(4-hydroxyphenyl)ethyl]-2-nitro-1,1-ethenediamine] | 0.18 | 175 | – | – |
| O=[N+]([O-])C=C(NCCCOc1cccc(CN2CCCCC2)c1)NCC(O)c1cccnc1 (stereo not shown) [compound 19, N-[2-hydroxy-2-(3-pyridyl)ethyl]-2-nitro-N'-[3-(3-piperidinomethylphenoxy)propyl]-1,1-ethenediamine] | 0.1 | 164 | – | – |
| O=[N+]([O-])C=C(NCCCOc1cccc(CN2CCCCC2)c1)NCC(O)c1ccc([N+](=O)[O-])cc1 (stereo not shown) [compound 20, N-[2-hydroxy-2-(4-nitrophenyl)ethyl]-2-nitro-N'-[3-(3-piperidinomethylphenoxy)propyl]-1,1-ethenediamine] | – | > 210 | – | – |
| CS(=O)(=O)NC(=NCCCOc1cccc(CN2CCCCC2)c1)NCC(O)c1ccccc1 (stereo not drawn) [compound 21, N-(β-hydroxyphenethyl)-N'-methanesulfonyl-N"-[3-(3-piperidinomethylphenoxy)propyl]guanidine] | 0.1 | > 240 | – | – |
| CN(C)Cc1ccc(CSCCNC(=C[N+](=O)[O-])NC[C@@H](O)c2ccc(O)cc2)o1 [compound 22, N-{2-[[5-(dimethylamino)methyl-2-furyl]methylthio]ethyl}-N'-[S(+)-2-hydroxy-2-(4-hydroxyphenyl)ethyl]-2-nitro-1,1-ethenediamine] | 0.04 | 136 | – | – |
| COc1cccc(C(O)CNC(=C[N+](=O)[O-])NCCSCc2ccc(CN(C)C)o2)c1 (stereo not shown) [compound 23, N-{2-[[5-(dimethylamino)methyl-2-furyl]methylthio]ethyl}-N'-[2-hydroxy-2-(3-methoxyphenyl)ethyl]-2-nitro-1,1-ethenediamine] | 0.15 | 242 | – | – |
| CSc1ccc(C(O)CNC(=C[N+](=O)[O-])NCCSCc2ccc(CN(C)C)o2)cc1 (stereo not shown) [compound 24, N-{2-[[5-(dimethylamino)methyl-2-furyl]methylthio]ethyl}-N'-[2-hydroxy-2-(4-methylthiophenyl)ethyl]-2-nitro-1,1-ethenediamine] | 0.2 | > 240 | – | – |
| CN(C)Cc1ccc(CSCCNC(=C[N+](=O)[O-])NCC(O)c2ccc(F)c(F)c2)o1 (stereo not shown) [compound 25, N-{2-[[5-(dimethylamino)methyl-2-furyl]methylthio]ethyl}-N'-[2-(3,4-difluorophenyl)-2-hydroxyethyl]-2-nitro-1,1-ethenediamine] | 0.1 | > 240 | – | – |
| CSc1ccc(C(O)CNC(=C[N+](=O)[O-])NCCCOc2cccc(CN3CCCCC3)c2)cc1 (stereo not shown) [compound 26, N-[2-hydroxy-2-(4-methylthiophenyl)ethyl]-2-nitro-N'-[3-(3-piperidinomethylphenoxy)propyl]-1,1-ethenediamine] | 0.3 | > 240 | – | – |
| O=[N+]([O-])C=C(NCCCOc1cccc(CN2CCCCC2)c1)NCC(O)c1cccc(C(F)(F)F)c1 (stereo not shown) [compound 27, N-[2-hydroxy-2-(3-trifluoromethylphenyl)ethyl]-2-nitro-N'-[3-(3-piperidinomethylphenoxy)propyl]-1,1-ethenediamine] | 0.3 | > 210 | – | – |
| Cc1cc(CSCCNC(=C[N+](=O)[O-])NCC(O)c2cccc(Cl)c2)sc1CN(C)C (stereo not shown) [compound 28, N-[2-(3-chlorophenyl)-2-hydroxyethyl]-N'-{2-[[5-(dimethylamino)methyl-4-methyl-2-thienyl]methylthio]ethyl}-2-nitro-1,1-ethenediamine] | 0.1 | 205 | – | – |
| O=[N+]([O-])C=C(NCCCOc1cccc(CN2CCCCC2)c1)NCC(O)c1ccc(F)c(F)c1 (stereo not shown) [compound 30, N-[2-(3,4-difluorophenyl)-2-hydroxyethyl]-2-nitro-N'-[3-(3-piperidinomethylphenoxy)propyl]1,1-ethenediamine] | 0.15 | > 240 | – | – |
| CCc1cccc(C(O)CNC(=C[N+](=O)[O-])NCCSCc2cc(C)c(CN(C)C)s2)c1 (stereo not shown) [compound 31, N-{2-[[5-(dimethylamino)methyl-4-methyl-2-thienyl]methylthio]ethyl}-N'-[2-(3-ethylphenyl)-2-hydroxyethyl]-2-nitro-1,1-ethenediamine] | 0.3 | 226 | – | – |
| Cc1cc(CSCCNC(=C[N+](=O)[O-])NCC(O)c2c(F)cccc2F)sc1CN(C)C (stereo not shown) [compound 34, N-{2-[[5-(dimethylamino)methyl-4-methyl-2-thienyl]methylthio]ethyl}-N'-[2-(2,6-difluorophenyl)-2-hydroxyethyl]-2-nitro-1,1-ethenediamine] | – | – | 71 | – |
| Cc1cc(CSCCNC(=C[N+](=O)[O-])NCC(O)c2ccc(F)cc2F)sc1CN(C)C (stereo not shown) [compound 35, N-{2-[[5-(dimethylamino)methyl-4-methyl-2-thienyl]methylthio]ethyl}-N'-[2-(2,4-difluorophenyl)-2-hydroxyethyl]-2-nitro-1,1-ethenediamine] | – | – | – | 47 |
| O=[N+]([O-])C=C(NCCCOc1cccc(CN2CCCCC2)c1)NCC(O)c1ccccc1F (stereo not shown) [compound 36, N-[2-(2-fluorophenyl)-2-hydroxyethyl]-2-nitro-N'-[3-(3-piperidinomethylphenoxy)propyl]-1,1-ethenediamine] | – | – | 85 | – |
| COc1ccc(C(O)CNC(=C[N+](=O)[O-])NCCSCc2ccc(CN(C)C)o2)cc1 (stereo not shown) [compound 37, N-{2-[[5-(dimethylamino)methyl-2-furyl]methylthio]ethyl}-N'-[2-hydroxy-2-(4-methoxyphenyl)ethyl]-2-nitro-1,1-ethenediamine] | – | – | 77 | – |
| CN(C)Cc1ccc(CSCCNC(=C[N+](=O)[O-])NCC(O)c2ccc(F)cc2)o1 (stereo not shown) [compound 38, N-{2-[[5-(dimethylamino)methyl-2-furyl]methylthio]ethyl}-N'-[2-(4-fluorophenyl)-2-hydroxyethyl]-2-nitro-1,1-ethenediamine] | – | – | – | 41 |
| Cc1ccccc1C(O)CNC(=C[N+](=O)[O-])NCCSCc1ccc(CN(C)C)o1 (stereo not shown) [compound 39, N-{2-[[5-(dimethylamino)methyl-2-furyl]methylthio]ethyl}-N'-[2-hydroxy-2-(2-methylphenyl)ethyl]-2-nitro-1,1-ethenediamine] | – | – | 90 | – |
